The results in this text go back to ChEMBL document CHEMBL3045199, “Synthesis of some (E)-6-[2-(furan-2-yl)ethenyl]-1,2,4-triazin-5-ones and their biological evaluation as antitumor agents” (2013).

What all share (type): functional
Experiment [1] is described as follows: Cytotoxicity against Homo sapiens (human) NCI-ADR-RES cells assessed as growth inhibition at 10 uM after 24 hr. Particulars: read-out: GI.
The subject of another experiment is MDA-MB-468. The experiment in a line: Cytotoxicity against Homo sapiens (human) MDA-MB-468 cells after 48 hr by SRB assay. Particulars: MDA-MB-468, 48 h.
Another experiment deals with OVCAR-8. The experiment in a line: Cytotoxicity against Homo sapiens (human) OVCAR8 cells assessed as growth inhibition at 10 uM after 24 hr. Conditions: OVCAR-8, 24 h, read-out: GI.
The next experiment concerns HOP-92. In words: Cytotoxicity against Homo sapiens (human) HOP92 cells assessed as growth inhibition at 10 uM after 24 hr. Conditions: HOP-92, 24 h, read-out: GI.
Another experiment has as its system MDA-MB-435. In words: Cytotoxicity against Homo sapiens (human) MDA-MB-435 cells assessed as growth inhibition at 10 uM after 24 hr. Conditions: MDA-MB-435, 24 h, read-out: GI.
Another experiment has as its system UO-31. The experiment in a line: Cytotoxicity against Homo sapiens (human) UO31 cells assessed as growth inhibition at 10 uM after 24 hr. Conditions: UO-31, 24 h, read-out: GI.
A further experiment relates to ACHN. In words: Cytotoxicity against Homo sapiens (human) ACHN cells assessed as growth inhibition at 10 uM after 24 hr. Particulars: read-out: GI.
The test system of a further experiment is CAKI-1. In words: Cytotoxicity against Homo sapiens (human) Caki1 cells assessed as growth inhibition at 10 uM after 24 hr. Conditions: CAKI-1, 24 h, read-out: GI.
Experiment [2] can be described thus: Cytotoxicity against Homo sapiens (human) leukemia cells after 48 hr by SRB assay. Particulars: Leukemia cell. On the technique in general: Sulforhodamine B stains cellular protein and so reports cell mass.
The next experiment deals with SK-MEL-5. The experiment in a line: Cytotoxicity against Homo sapiens (human) SK-MEL-5 cells assessed as growth inhibition at 10 uM after 24 hr. Conditions: SK-MEL-5, 24 h, read-out: GI.
The subject of another experiment is NCI-H322M. In words: Cytotoxicity against Homo sapiens (human) NCI-H322M cells assessed as growth inhibition at 10 uM after 24 hr. Conditions: read-out: GI.
Setting [3] is: read-out: LC50 (the source's name).

A word on the GI50: it is the concentration that inhibits growth by half. A lower GI50 goes with greater sensitivity of the cells. In general, TGI refers to the concentration giving total growth inhibition. High values mean less potent growth arrest, low ones more potent growth arrest.

In the case of `Nc1cc(-c2ccc(Cl)cc2)nn1-c1nc(=O)c(/C=C/c2ccco2)n[nH]1`, the inhibition of growth at 10 µM is 94.3% in experiment [1]; 75.2% in the experiment on OVCAR-8; 39.7% with HOP-92; 37.2% in the experiment on MDA-MB-435; 96.1% in the experiment on UO-31; 70.6% in the experiment on ACHN. Moreover, the inhibition of growth at 10 µM was determined as 99% in the experiment on CAKI-1, 54% in the experiment with SK-MEL-5 and 75.6% with NCI-H322M. Moreover, the figures for the GI50 (in the experiment on MDA-MB-468; in [2]) were 3.08 µM and 2.71 µM, respectively. The TGI in the experiment on MDA-MB-468 turned out to be 22.2 µM; in [2] it was 17.9 µM. In addition, the CC50 (with MDA-MB-468 (setting [3]); in [2] (setting [3])) was > 100 µM in each case.
